From BindingDB's records for doi:10.1021/np010194b (Kyungpook National University, 2002)
Where a SMILES comes first, the peptide text is derived from it. Bridges are numbered along the chain shown (N, C = ends).

Biological target: Prolyl endopeptidase (Flavobacterium meningosepticum)
Assay: Inhibition of Flavobacterium meningosepticum PEP

IC50: 1100 nM
SMILES: CC[C@H](C)[C@H](NC(=O)[C@H](Cc1ccccc1)NC(=O)[C@@H](NC(=O)[C@H](Cc1cnc[nH]1)NC(=O)CNC(=O)CNC(=O)[C@H](Cc1ccccc1)NC(=O)[C@H](CC(C)C)NC(=O)[C@@H]1CC(=O)NCC(=O)N[C@@H](Cc2ccc(O)cc2)C(=O)N2CCC[C@H]2C(=O)N[C@@H](Cc2c[nH]c3ccccc23)C(=O)N[C@@H](Cc2c[nH]c3ccccc23)C(=O)N[C@@H](CC(=O)O)C(=O)N[C@@H](Cc2ccc(O)cc2)C(=O)N[C@@H](CCCNC(=N)N)C(=O)N1)[C@@H](C)O)C(=O)N[C@@H](CO)C(=O)N1CCC[C@H]1C(=O)O [propeptin] (GYPWWDYRDLFGGHTFISP-OH; lactam N-9)
